Earlier results in patent publication US20030143266A1, “Cationic amphiphile micellar complexes” (GENZYME CORPORATION, priority 1999, published 2003).

System: airway epithelial cells
Conditions: shown by elevation of cGMP levels, CFTR-dependent chloride transport, ciliary beat frequency

## CNP-22: C-type natriuretic peptide containing 22 amino acid; binds and activates guanylate cyclase-B receptor
  binding to airway epithelial cells in vivo: Specific binding
